Source: paper PMC7044277 (Nature Communications, 2020)
Several values for one entry are separate records, joined by “and”; a condition that tells them apart may be missing. Equal values may be shown once.

Legend:
Type in all cases: cell-based
320 non-olfactory GPCRs [1] = molecular target: T1, 320 non-olfactory GPCRs (Homo sapiens, UniProt Q96AM1); settings: receptor MRGPRF; replicate values, Fig_4g
T1 construct: expressed in transfected cells; host or cells: HTLA cells

320 non-olfactory GPCRs [2] = molecular target: 320 non-olfactory GPCRs (Homo sapiens, UniProt P11229)
320 non-olfactory GPCRs [3] = molecular target: 320 non-olfactory GPCRs (Homo sapiens, UniProt P21917)
320 non-olfactory GPCRs [4] = molecular target: T2, 320 non-olfactory GPCRs (Homo sapiens, UniProt Q99788)
T2 construct: expressed in transfected cells; host or cells: HTLA cells
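For Fold of Basal in this document: compound tested at 1 µM final concentration.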
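For GPCRome agonism screen response in this document: fold over basal response of each receptor without drug.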

Sequence of 320 non-olfactory GPCRs (Homo sapiens, UniProt P21917) (P21917 whole entry): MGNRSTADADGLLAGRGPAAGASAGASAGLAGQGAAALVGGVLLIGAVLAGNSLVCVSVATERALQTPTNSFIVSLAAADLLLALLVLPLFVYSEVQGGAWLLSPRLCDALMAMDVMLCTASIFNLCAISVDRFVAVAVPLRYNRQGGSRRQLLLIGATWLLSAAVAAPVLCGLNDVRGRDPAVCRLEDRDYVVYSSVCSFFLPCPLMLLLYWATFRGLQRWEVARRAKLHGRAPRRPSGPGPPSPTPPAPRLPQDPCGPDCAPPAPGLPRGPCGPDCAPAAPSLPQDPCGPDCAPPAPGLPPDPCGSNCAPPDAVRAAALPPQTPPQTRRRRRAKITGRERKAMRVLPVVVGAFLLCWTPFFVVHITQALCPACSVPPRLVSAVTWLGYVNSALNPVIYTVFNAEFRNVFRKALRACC
Sequence of 320 non-olfactory GPCRs (Homo sapiens, UniProt P11229) (P11229 whole entry): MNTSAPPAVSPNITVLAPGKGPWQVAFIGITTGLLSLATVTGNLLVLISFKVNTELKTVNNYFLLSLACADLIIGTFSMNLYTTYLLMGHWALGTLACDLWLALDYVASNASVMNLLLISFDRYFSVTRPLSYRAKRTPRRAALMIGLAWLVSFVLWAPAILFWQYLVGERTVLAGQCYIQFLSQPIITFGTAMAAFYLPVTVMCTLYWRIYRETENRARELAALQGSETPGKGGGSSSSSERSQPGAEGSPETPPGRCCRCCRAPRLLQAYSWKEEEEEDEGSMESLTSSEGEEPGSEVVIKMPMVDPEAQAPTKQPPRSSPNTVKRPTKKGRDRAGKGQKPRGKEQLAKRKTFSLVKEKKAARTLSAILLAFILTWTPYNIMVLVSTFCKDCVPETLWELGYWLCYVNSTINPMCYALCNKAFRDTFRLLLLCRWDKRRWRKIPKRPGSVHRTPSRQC
T1 sequence (Q96AM1 whole entry): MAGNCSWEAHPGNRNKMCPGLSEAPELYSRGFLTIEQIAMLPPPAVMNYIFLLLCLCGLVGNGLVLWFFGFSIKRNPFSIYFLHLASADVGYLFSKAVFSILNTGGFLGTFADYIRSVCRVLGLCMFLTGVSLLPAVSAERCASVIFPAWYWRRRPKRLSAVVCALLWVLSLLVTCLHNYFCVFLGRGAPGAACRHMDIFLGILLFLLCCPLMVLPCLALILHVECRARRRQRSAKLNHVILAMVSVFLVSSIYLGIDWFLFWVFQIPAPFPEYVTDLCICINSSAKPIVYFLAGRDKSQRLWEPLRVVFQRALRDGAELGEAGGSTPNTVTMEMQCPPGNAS
T2 sequence (Q99788 whole entry): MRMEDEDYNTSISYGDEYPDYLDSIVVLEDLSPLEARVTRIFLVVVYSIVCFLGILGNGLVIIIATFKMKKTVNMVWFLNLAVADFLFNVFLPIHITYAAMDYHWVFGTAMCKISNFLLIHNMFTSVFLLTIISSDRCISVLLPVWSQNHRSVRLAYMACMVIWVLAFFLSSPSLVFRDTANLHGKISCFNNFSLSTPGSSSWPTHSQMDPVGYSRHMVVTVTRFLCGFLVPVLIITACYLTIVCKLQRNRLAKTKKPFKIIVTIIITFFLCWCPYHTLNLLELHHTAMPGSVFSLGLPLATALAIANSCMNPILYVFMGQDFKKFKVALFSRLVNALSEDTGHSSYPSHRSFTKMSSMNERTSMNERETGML

CCOc1cccc2cc(C(C)NCC3(O)CCCCC3)oc12 (stereo not shown) [O4LE6]
GPCRome agonism screen response (320 non-olfactory GPCRs [1]): 0.9496 and 0.9687 and 0.9252 and 0.5763
Fold of Basal (320 non-olfactory GPCRs [2]): 0.6962 and 0.7878 and 0.5081 and 0.6515
Fold of Basal (320 non-olfactory GPCRs [3]): 1.429 and 1.1388 and 0.8668 and 1.288
Fold of Basal (320 non-olfactory GPCRs [4]): 0.9321 and 1.173 and 0.7369 and 1.152
